Data as given in US6287813A, “Antibiotic-based gene regulation system” (Cistronics Cell Technology GmbH, priority 1999, dated 2001).

What was measured:
Pip/PPTR = target: T1, Pip/PPTR (Streptomyces coelicolor, UniProt Q9ADN3); assay: Gel retardation assay of Pip/PPTR interaction; assay type: binding; settings: Pip 0.2 pmol titrated with 50 pmol to 0.01 pmol antibiotic
T1 construct: gel retardation with ptr promoter DNA (PPTR) of S. pristinaespiralis
T1 sequence (Q9ADN3 1-252): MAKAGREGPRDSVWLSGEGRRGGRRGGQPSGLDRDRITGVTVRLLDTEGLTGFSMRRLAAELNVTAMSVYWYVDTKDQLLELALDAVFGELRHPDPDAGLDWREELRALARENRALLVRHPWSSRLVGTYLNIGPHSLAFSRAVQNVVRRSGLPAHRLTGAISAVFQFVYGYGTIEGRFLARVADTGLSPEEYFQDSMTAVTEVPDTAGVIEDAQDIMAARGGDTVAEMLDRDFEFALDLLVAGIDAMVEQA
Description: FIG. 1: Gel retardation assay showing Pip/PPTR interaction. PPTR of S. pristinaespiralis contains 3 dyad symmetrical binding sites (lane A; PPTR in the absence of Pip) all of which are saturated at relatively large amounts of purified Pip (0.4 pmol; […]) resulting in a single shifted band. Smaller amounts of Pip (0.02 pmol) presented an intermediate situation in which all possible permutations of site occupancy are represented in three distinct retarded bands (lane C). Pip (0.2 pmol lanes D-M) was titrated with a range of PI from 50 pmol to 0.01 pmol (lanes D-H; D: 50 pmol; E: 10 pmol; F: 1 pmol; G: 0.1 pmol; H: 0.01 pmol). […]
Chinese hamster ovary cells (CHO-K1, ATCC: CCL 61), Baby hamster kidney cells (BHK-21, ATCC: CRL-8544), and HeLa cells (ATCC: CRL-7923) as well as stable cell lines CHO-PIT1, CHO-PIT2, CHO-TWIN195, CHO-TWIN1108 and CHO-PIT1-SEAP were cultured as described before (Fussenegger et al., 1998, Nat. Biotechnol. 16,468-472) in the presence of appropriate antibiotics: G418 400 μg/ml; zeocin 100 μg/ml. […] Transient transfected cells were routinely analyzed after 48 h for GFP or SEAP expression using fluorescence microscopy and p-nitrophenolphosphate-based light absorbance timecourse, respectively, as described before (Fussenegger et al., 1998, Nat. Biotechnol. 16, 468-472; Berger et al., 1988, Gene 66, 1-10 b). […]

PIT/PPIR system [1] = target: T2, PIT/PPIR system (Streptomyces coelicolor, UniProt Q9ADN3); assay: SEAP reporter assay, CHO-TWIN clones transfected with pMF172 (PPIR-SEAP); assay type: cell-based; settings: for activity at 2 µg/mL / activity at 10 µg/mL: 48 h, CHO-TWIN1108 + pMF172, crossregulation, read-out: SEAP Production (%); for activity at 10 µg/mL: 10 μg/ml
T2 construct: pMF156/pTWIN in CHO cells, PPIR-SEAP or GFP reporter
T2 sequence (Q9ADN3 1-252): T1 sequence (Q9ADN3 1-252)
Description: (§1) pTWIN contains both PIT and tTA in a PSV40 -driven dicistronic configuration. For construction of pTWIN, PIT was first transferred from pMF156 as an EcoRI/HindIII fragment to the corresponding sites of pSBC-1 (EcoRI/HindIII; resulting in pMF167) before the PIT expression unit could be fused to the tTA expression unit contained on pSBC2-tTA (Fussenegger et al., 1997, supra) via SspI/NotI sites. Thus, pTWIN contains the dicistronic PSV40 -PIT-IRES-tTA-pA expression cassette.
(§2) Chinese hamster ovary cells (CHO-K1, ATCC: CCL 61), Baby hamster kidney cells (BHK-21, ATCC: CRL-8544), and HeLa cells (ATCC: CRL-7923) as well as stable cell lines CHO-PIT1, CHO-PIT2, CHO-TWIN195, CHO-TWIN1108 and CHO-PIT1-SEAP were cultured as described before (Fussenegger et al., 1998, Nat. Biotechnol. 16,468-472) in the presence of appropriate antibiotics: G418 400 μg/ml; zeocin 100 μg/ml. Optimized CaPO4 protocols were used for high efficiency transient transfection of all cell lines (id). Transient transfected cells were routinely analyzed after 48 h for GFP or SEAP expression using fluorescence microscopy and p-nitrophenolphosphate-based light absorbance timecourse, respectively, as described before (Fussenegger et al., 1998, Nat. Biotechnol. 16, 468-472; Berger et al., 1988, Gene 66, 1-10 b). For construction of stable CHO-PIT and CHO-TWIN cell lines, CHO-K1 was cotransfected either with pMF156 or pTWIN1 and pSV2neo carrying the G418 resistance gene. CHO-PIT1-SEAP was constructed by cotransfection of pMF172 and pZeoSV2 (Invitrogen). For assessment of dose-response characteristics of PPIR -regulated gene expression, CHO-PIT1-SEAP were cultured at cell densities of 150,000/ml for 48 at various PI concentrations. The mixed populations were cloned using FACS-mediated single-cell-sorting (FACStar^Plus; Beckton Dickinson). Gel retardation assay were performed as described (Salah-Bey et al., 1995, supra) using Pip purified from an overproducing strain of E. coli. Pip (0.02 pmol) was titrated with a range of antibiotic concentrations in a reaction volume of 20 μl. Protein solutions were pre-incubated at room temperature for 15 min. in the absence or presence of PI or its derivative quinupristin in a buffer containing 10 mM Tris (pH 7.8), 10 mM MgCl2, 300 mM NaCl, 2 mM DTT and 10% glycerol. An EcoRI-HindII PPTR fragment (0.02 pmol) containing three Pip binding sites (radiolabelled using α-^32 P)dATP was added and incubated for 15 min. To minimize nonspecific protein binding and increase protein stability, 2 μg of poly dIdC and 20 μg BSA were included in the incubation mix. Protein-DNA complexes were separated on 5% polyacrylamide,TBE gels and visualized by autoradiography.
(§3) CHO-TWIN195 and CHO-TWIN1108 were transfected under identical conditions with the isogenic plasmids containing the SEAP gene under control of the tTA-activated promoter PhCMV*-1 (pMF111) or the PIT-activated promoter PPIR (pMF172). Transfected cells were grown for 48 h in the presence or absence of either antibiotic prior to assay of SEAP activity.
(§4) Table 6: Comparison of the regulation performance of streptogramin- (PI and virginiamycin; VIR) and tetracycline-based gene regulation systems. The two cell clones CHO-TWIN195 and CHO-TWIN1108 containing both pristinamycin- and tetracycline-dependent transactivators were transfected with either the streptogramin-responsive or the TET-responsive SEAP reporter plasmids pMF172 (PPIR -SEAP) and pMF111 (PhCMV*-1 -SEAP), respectively, and the relative SEAP production was assessed. SEAP production values are normalized by SEAP activities under the antibiotic-free, active promoter conditions as follows: pMF172 in CHO-TWIN195:1.7 mU/ml; in CHO-TWIN1108 : 1.8 mU/ml. pMF111 in CHO-TWIN195 : 18.6 mU/ml; in CHO-TWIN1108 : 19.2 mU/ml.
(§5) Table 7: Compatibility of the streptogramin- and tetracycline-based gene regulation systems. Crossregulation of pristinamycin (PI) and the tetracyclines doxycycline (DOX) and tetracycline (TET). […]

PIT/PPIR system [2] = target: T2, PIT/PPIR system; assay: SEAP reporter assay, CHO-K1 cotransfected with pMF156 (PIT) and pMF172 (PPIR-SEAP); assay type: cell-based
Experimental: PIT, the fusion protein of Pip and the VP16 C-terminal transactivation domain of Herpes simplex (Triezenberg et al., 1988, Genes Dev. 2, 718-729) was constructed by amplifying the S. coelicolor Pip from pGemT::Epip4 with oligos:
as §2
Five different sources of pristinamycin were used: The two therapeutic forms Pyostacin™ and Synercid™, pristinamycin discs, and the single compounds pristinamycin I (PI) and pristinamycin II (PII). Pyostacin™ pills (500 mg) were ground in a mortar and solubilized in DMSO or water at a stock concentration of 50 mg/ml. Synercid™ (RP 59500; Lot Nr. CB06253) was provided by Aventis in injection-ready vials containing 500 mg lyophilized antibiotic which was reconstituted in 5 ml of 5% glucose solution and frozen at -20° C. Individual pristinamycin compounds PI and PII (identical to virginiamycin M1 (VM1); Sigma ref. V2753) were solubilized in DMSO at a concentration of 50 mg/ml and kept at -20° C. Antibiotic discs containing 15 μg pristinamycin or virginiamycin (bioMerieux, ref. 54552; bioMerieux, ref. 54612) were soaked in 1 ml cell culture medium at 4i C for up to 24 h. […] The concentration of individual streptogramin components was calculated based on their fixed 70:30 ratio (w/w; PII/VM1 /dalfopristin: PI/VS1 /quinupristin). […]

[3] = target: T3, TET-responsive system (tTA/PhCMV*-1) (Escherichia coli, UniProt P04483); assay: SEAP reporter assay, CHO-TWIN clones transfected with pMF111 (PhCMV*-1-SEAP); assay type: cell-based; settings: for SEAP Production (%): 48 h, no inducer = 100
T3 construct: expressed in transfected cells; host or cells: CHO-K1 clones CHO-TWIN195 and CHO-TWIN1108 (pTWIN1)
T3 sequence (P04483 whole entry, added parts left off): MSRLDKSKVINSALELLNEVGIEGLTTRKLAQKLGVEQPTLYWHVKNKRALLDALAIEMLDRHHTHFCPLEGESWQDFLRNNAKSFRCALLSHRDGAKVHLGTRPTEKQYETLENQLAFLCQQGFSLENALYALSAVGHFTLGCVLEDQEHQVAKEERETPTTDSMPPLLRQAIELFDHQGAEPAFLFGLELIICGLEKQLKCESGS
Description: as §1, §2, §3, §4, §5

CC[C@H]1NC(=O)[C@@H](NC(=O)c2ncccc2O)[C@@H](C)OC(=O)[C@H](c2ccccc2)NC(=O)[C@@H]2CC(=O)[C@H](CS[C@@H]3CN4CCC3CC4)CN2C(=O)[C@H](Cc2ccc(N(C)C)cc2)N(C)C(=O)[C@@H]2CCCN2C1=O (stereo in doubt) [quinupristin]
Release of Pip from PPTR (Pip/PPTR): only partial release

C[C@H]1c2cccc(O)c2C(O)=C2C(=O)[C@]3(O)C(O)=C(C(N)=O)C(=O)[C@@H](N(C)C)[C@@H]3[C@@H](O)[C@@H]21 [DOX, doxycycline]
activity at 2 µg/mL (PIT/PPIR system [1]; 2 μg/ml): 77 ± 6.9%
activity at 10 µg/mL (PIT/PPIR system [1]): 50.5 ± 7.9%

CC1=CC(O)CC(=O)Cc2nc(co2)C(=O)N2CCC=C2C(=O)OC(C(C)C)C(C)C=CC(=O)NCC=C1 (stereo not drawn) [PII, pristinamycin II]
Downregulation of PIT/PPIR-mediated SEAP expression (PIT/PPIR system [2]; CHO-K1, 2 μg/ml): did not display any significant repression activity
activity at 2 µg/mL (PIT/PPIR system [2]; CHO-K1, inducer 2 μg/ml, assayed 48 hr later, no inducer = 100, read-out: SEAP Production (%)): 96.3 ± 3.2%

CN(C)[C@@H]1C(=O)C(C(N)=O)=C(O)[C@@]2(O)C(=O)C3=C(O)c4c(O)cccc4[C@@](C)(O)[C@H]3C[C@@H]12 [TET, tetracycline]
Induction factor (IF; ratio of maximal expression level to antibiotic-repressed expression level) ([3]; CHO-TWIN195 + pMF111): 12
SEAP Production (%) ([3]; CHO-TWIN195 + pMF111): 8.57 ± 0.37%
Induction factor (fold downregulation of SEAP) ([3]; CHO-TWIN1108 + pMF111, 2880 min): 13 fold
SEAP Production (%) ([3]; CHO-TWIN1108 + pMF111): 7.56 ± 0.01%
inhibition at 2 µg/mL (PIT/PPIR system [1]; 2 μg/ml, read-out: Repressive effect on the PIT/PPIR system): 17%
activity at 2 µg/mL (PIT/PPIR system [1]; 2 μg/ml): 87.7 ± 1.76%
activity at 10 µg/mL (PIT/PPIR system [1]): 57.5 ± 5%
